In patent publication US20160135464A1, “PESTICIDAL COMPOSITIONS AND PROCESSES RELATED THERETO” (Dow AgroSciences LLC, priority 2014, published 2016):

Columns and labels:
[1] = system: Corn Earworm (CEW) (Helicoverpa zea); assay: Bioassay on corn earworm (CEW), 128-well diet tray assay, percent mortality; type: in vivo; settings: Helicoverpa zea, 50 μg/cm^2
Method: (§1) Certain molecules disclosed in this document were tested against BAW and CEW using procedures described in the following examples. In the reporting of the results, the “BAW & CEW Rating Table” was used (See Table Section).
Bioassays on CEW (Helicoverpa zea)
Bioassays on CEW were conducted using a 128-well diet tray assay. One to five second instar CEW larvae were placed in each well (3 mL) of the diet tray that had been previously filled with 1 mL of artificial diet to which 50 μg/cm^2 of the test compound (dissolved in 50 μL of 90:10 acetone-water mixture) had been applied (to each of eight wells) and then allowed to dry. Trays were covered with a clear self-adhesive cover and held at 25° C., 14:10 light-dark for five to seven days. Percent mortality was recorded for the larvae in each well; activity in the eight wells was then averaged. The results are indicated in the table entitled “Table 5: Biological Results” (See Table Section).

[2] = system: Beet Armyworm (BAW) (Spodoptera exigua); assay: Bioassay on beet armyworm (BAW), 128-well diet tray assay, percent mortality; type: in vivo; settings: Spodoptera exigua, 50 μg/cm^2
Method: as §1
Bioassays on BAW (Spodoptera exigua)
Bioassays on BAW were conducted using a 128-well diet tray assay. One to five second instar BAW larvae were placed in each well (3 mL) of the diet tray that had been previously filled with 1 mL of artificial diet to which 50 μg/cm^2 of the test compound (dissolved in 50 μL of 90:10 acetone-water mixture) had been applied (to each of eight wells) and then allowed to dry. Trays were covered with a clear self-adhesive cover and held at 25° C., 14:10 light-dark for five to seven days. Percent mortality was recorded for the larvae in each well; activity in the eight wells was then averaged. The results are indicated in the table entitled “Table 5: Biological Results” (See Table Section).

[3] = system: Green Peach Aphid (GPA) (Myzus persicae); assay: Bioassay on green peach aphid (GPA), foliar spray on cabbage seedlings, corrected % control; type: in vivo; settings: 72 h, read-out: % Mortality GPA 200 ppm
Method: Certain molecules disclosed in this document were tested against GPA using procedures described in the following example. In the reporting of the results, the “GPA Rating Table” was used (See Table Section).
Cabbage seedlings grown in 3-inch pots, with 2-3 small (3-5 cm) true leaves, were used as test substrate. The seedlings were infested with 20-50 GPA (wingless adult and nymph stages) one day prior to chemical application. Four pots with individual seedlings were used for each treatment. Test compounds (2 mg) were dissolved in 2 mL of acetone/methanol (1:1) solvent, forming stock solutions of 1000 ppm test compound. […] A hand-held aspirator-type sprayer was used for spraying a solution to both sides of […] leaves until runoff. Reference plants (solvent check) were sprayed with the diluent only containing 20% by volume of acetone/methanol (1:1) solvent. Treated plants were held in a holding room for three days at approximately 25° C. and ambient relative humidity (RH) prior to grading. Evaluation was conducted by counting the number of live aphids per plant under a microscope.
Corrected % Control=100*(X−Y)/X • where • X=No. of live aphids on solvent check plants and • Y=No. of live aphids on treated plants
The results are indicated in the table entitled “Table 5: Biological Results” (See Table Section).

melting point [°C]	Compound	pest or weed control at 50 µg/cm2, 50 µg/cm2 [1] [%]	pest or weed control at 50 µg/cm2, 50 µg/cm2 [2] [%]	pest or weed control at 200 ppm [3] [%]
–	Cc1cc(C)c(N2C(=O)CS/C2=N\N=C\c2ccc(-c3ncn(-c4ccc(OC(F)(F)F)cc4)n3)cc2)c(C)c1 [Compound 72C]	50 to 100	50 to 100	0 to 80
–	CCc1cccc(C)c1N1CCCS/C1=N\N=C\c1ccc(-c2ncn(-c3ccc(OC(F)(F)F)cc3)n2)cc1 [Compound 180C]	50 to 100	50 to 100	0 to 80
–	CC(C)c1ccccc1N1/C(=N/N=C/c2ccc(-c3ncn(-c4ccc(OC(F)(F)F)cc4)n3)cc2)SCC1(C)O (stereo not drawn) [Compound 242C]	50 to 100	50 to 100	0 to 80
–	CCC(C)c1ccccc1N1/C(=N/N=C/c2ccc(-c3ncn(-c4ccc(OC(F)(F)F)cc4)n3)cc2)SCC1(C)O (stereo not drawn) [Compound 243C]	50 to 100	50 to 100	0 to 80
–	COc1ccc(N2/C(=N/N=C/c3ccc(-c4ncn(-c5ccc(OC(F)(F)F)cc5)n4)cc3)SCC2(C)O)c(C)c1 (stereo not drawn) [Compound 245C]	50 to 100	50 to 100	0 to 80
–	Cc1ccccc1N1/C(=N/N=C/c2ccc(-c3ncn(-c4ccc(OC(F)(F)F)cc4)n3)cc2)SCC1(C)O (stereo not drawn) [Compound 248C]	50 to 100	50 to 100	0 to 80
–	CC(C)c1cccc(F)c1N1/C(=N/N=C/c2ccc(-c3ncn(-c4ccc(OC(F)(F)F)cc4)n3)cc2)SCC1(C)O (stereo not drawn) [Compound 250C]	50 to 100	50 to 100	0 to 80
–	Cc1ccc(N2/C(=N/N=C/c3ccc(-c4ncn(-c5ccc(OC(F)(F)F)cc5)n4)cc3)SCC2(C)O)c(C(C)C)c1 (stereo not drawn) [Compound 251C]	50 to 100	50 to 100	0 to 80
–	CCc1ccccc1N1/C(=N/N=C/c2ccc(-c3ncn(-c4ccc(OC(F)(F)F)cc4)n3)cc2)SCC1(C)O (stereo not drawn) [Compound 254C]	50 to 100	50 to 100	0 to 80
–	CCCc1ccccc1N1/C(=N/N=C/c2ccc(-c3ncn(-c4ccc(OC(F)(F)F)cc4)n3)cc2)SCC1(C)O (stereo not drawn) [Compound 256C]	50 to 100	50 to 100	0 to 80
–	CC(C)c1ccccc1N1/C(=N/N=C/c2ccc(-c3ncn(-c4ccc(OC(F)(F)C(F)(F)F)cc4)n3)cc2)SCC1(C)O (stereo not drawn) [Compound 262C]	50 to 100	50 to 100	0 to 80
–	CC(C)c1ccccc1N1/C(=N/N=C/c2ccc(-c3ncn(-c4ccc(OC(F)(F)F)cc4)n3)cc2)SCC1(O)c1ccccc1C(F)(F)F (stereo not drawn) [Compound 263C]	50 to 100	50 to 100	0 to 80
213 to 216	FC(F)(F)Oc1ccc(-n2cnc(-c3ccc(/C=N/NC(=S)Nc4ccccc4C4CCCC4)cc3)n2)cc1 [Compound I-35]	–	–	–
219 to 222	Cc1cccc(NC(=S)N/N=C/c2ccc(-c3ncn(-c4ccc(OC(F)(F)F)cc4)n3)cc2)c1C(C)C [Compound I-43]	–	–	–
167 to 169	Cc1ccc(C(C)C)c(NC(=S)NN)c1 [Compound I-46]	–	–	–
163 to 167	CC(C)c1cc(F)ccc1NC(=S)NN [Compound I-50]	–	–	–
169 to 170	CC(C)c1cc(F)c(F)cc1NC(=S)NN [Compound I-54]	–	–	–
217 to 221	CC(C)c1cc(F)c(F)cc1NC(=S)N/N=C/c1ccc(-c2ncn(-c3ccc(OC(F)(F)F)cc3)n2)cc1 [Compound I-55]	–	–	–
